# In patent publication US20260078348A1, “MULTIPLE MYELOMA MICROORGANOSPHERES” (Xilis, Inc., priority 2022, published 2026):
# Legend:
# MM MOS [1] = experiment: Caspase 3/7 green dye apoptosis monitoring of drug-treated MM MOS (INCUCYTE imaging); format: cell-based, human; conditions: for MM MOS death (Caspase 3/7 signal): day 11 MM MOS, 5 μM lenalidomide or 2 nM bortezomib for 92 hours, vs negative control
# Experimental: Studies were conducted to determine the effects of various MM drugs on the MM MOS. For example, day 11 MM MOS were treated with 5 μM lenalidomide or 2 nM bortezomib for 92 hours, with no medium change during the drug treatment. Caspase 3/7 green dye was included in the medium to monitor apoptosis, and fluorescence was measured.
# MM MOS [2] = experiment: Live/dead dye (calcein AM / ethidium homodimer) imaging of drug-treated MM MOS; format: cell-based, human; conditions: for MM MOS response to treatment: 10 μM for 4 days, live/dead dye images, n=3, p<0.05 by t-test; for live/dead ratio: 10 μM, 4 days of treatment beginning on day 9 of MOS generation, compared to negative control
# Experimental: Further studies were conducted using 10 μM carfilzomib or 10 μM selinexor treatment beginning on day 9 of MOS generation from MM patient bone marrow biopsy samples. After 4 days of treatment, live/dead dyes (calcein AM-green and ethidium homodimer-red) were added to the wells for a 30-minute incubation.
Structure (SMILES),MM MOS death (Caspase 3/7 signal) (MM MOS [1]),MM MOS response to treatment (MM MOS [2]),live/dead ratio (MM MOS [2]),"time at which MM MOS responded after onset of treatment (MM MOS [1]; 5 μM lenalidomide, INCUCYTE images taken every 2 hours) [h]"
CC(C)C[C@H](NC(=O)[C@H](Cc1ccccc1)NC(=O)c1cnccn1)B(O)O [bortezomib],not,–,–,–
CC(C)C[C@H](NC(=O)[C@H](CCc1ccccc1)NC(=O)CN1CCOCC1)C(=O)N[C@@H](Cc1ccccc1)C(=O)N[C@@H](CC(C)C)C(=O)[C@@]1(C)CO1 [carfilzomib],–,responded,significantly reduced,–
Nc1cccc2c1CN(C1CCC(=O)NC1=O)C2=O (stereo not shown) [lenalidomide],increased,–,–,24
O=C(/C=C\n1cnc(-c2cc(C(F)(F)F)cc(C(F)(F)F)c2)n1)NNc1cnccn1 [selinexor],–,responded,significantly reduced,–
